One assay relates to Kp 6951 (COL^R). The format is cell-based, Klebsiella pneumoniae. Particulars: Kp 6951 (COL^R); media CA-MHB. Put shortly:
(§1)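 Compounds were serially diluted 2-fold (8 or 12 points) against inocula from MHA cultures, set to ~0.1 OD600 in 0.85% saline. Conjugates were tested in RPMI B. Plates were incubated at 35 °C for 16-20 h, and Pa LES431 was also run with and without 50% heat-inactivated FBS.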

A further assay has as its system Kp 43816. Type of assay: cell-based, Klebsiella pneumoniae. The conditions noted are these: Kp 43816; media CA-MHB. The procedure, abridged:
as §1

The subject of the next assay is Kp 10031. Type of assay: cell-based, Klebsiella pneumoniae. Particulars: Kp 10031; media CA-MHB. The procedure, abridged: as §1
Another assay relates to Ab AB5075. Type of assay: cell-based, Acinetobacter baumannii. The conditions noted are these: Ab AB5075; media CA-MHB. Put shortly:
as §1

A further assay concerns Ab 8990 (COL^R). The format is cell-based, Acinetobacter baumannii. The conditions noted are these: Ab 8990 (COL^R); media CA-MHB. Put shortly:
as §1

In another assay the test system is Pa LES431. Type of assay: cell-based, Pseudomonas aeruginosa. The conditions noted are these: media CA-MHB. The procedure, abridged:
as §1

The next assay deals with Pa PAO1. Type of assay: cell-based, Pseudomonas aeruginosa. Particulars: Pa PAO1; media CA-MHB. The procedure, abridged:
as §1

The test system of the next assay is Pa 27853. The format is cell-based, Pseudomonas aeruginosa. Particulars: Pa 27853; media CA-MHB. Put shortly: as §1
The next assay has as its system Ec 2469. Type of assay: cell-based, Escherichia coli. Particulars: Ec 2469; media CA-MHB. Put shortly:
as §1

A further assay concerns Ec 25922. The format is cell-based, Escherichia coli. The conditions noted are these: media CA-MHB. The procedure, abridged:
as §1

Another assay deals with Ec AR0349 (mcr-1, COL^R). Type of assay: cell-based, Escherichia coli. The conditions noted are these: media CA-MHB.
Another assay concerns Ec 25922 64X-1 (COL^R). The format is cell-based, Escherichia coli. The conditions noted are these: media CA-MHB.
Assay [1] concerns Ab AB58705 (COL^R) IpxD, mut. (no LPS). Type of assay: cell-based, Acinetobacter baumannii. Particulars: media CA-MHB.
For a further assay, the system named is Sa RN. The format is cell-based.
The subject of the next assay is Ab 19606 (COLhet^R). The format is cell-based, Acinetobacter baumannii. The conditions noted are these: media CA-MHB.
The test system of assay [2] is Ec COL^R LPS: colistin-resistant (MCR-1) strain (AR0349). Kind of assay: Lethal mouse endotoxemia model (LD95 purified LPS IP). Type of assay: in vivo, C57BL/6J mice. Particulars: (D) Endotoxemia (Ec COL^R LPS); 5 mg/kg IV, single, -1 hr; survival after three days. The method, then:
Studies (B)-(D) shown in Table 22 summarizes the efficacy of compounds in lethal models of endotoxemia. In these models 6 week old C57I/6J immune competent mice (Jackson Laboratory) were challenged IP with purified lipopolysaccharide (LPS) in PBS at an LD95. For all studies, LPS was obtained from Sigma (catalog numbers in the table footnote) or were purified using a kit obtained from iNtRON Biotechnology Inc. (cat #17141). One hour prior to LPS challenge mice were dosed with test articles as indicated (Table 22). The results of these studies indicate that compounds are able to neutralize the lethal effects of LPS in a severe endotoxemia/sepsis model.
End point was survival after 3 days. Ec: E. coli 0111:B34, Sigma cat #L4130; Ab: Acinetobacter baumannii 5075; Kp: Klebsiella pneumonia 10, Sigma cat #L4268; Ng: Neisseria gonorrhoeae 19424; Ec 026:B86, Sigma cat #L2762; Pm: Proteus mirabilis, Sigma cat #SMB00704; Sm: Serratia marcescens, Sigma cat #L6016; Pa: Pseudomonas aeruginosa 10. […] Purified LPS used for all endotoxemia studies and if not denoted by a Sigma catalog number the LPS was purified in-house using an iNtRON #17141 purification kit. *Delayed death, at the time Fc only animals reached 100% mortality all Conjugate 41 mice were still alive.

A further assay has as its system A. baumannii AB5075. Kind of assay: A. baumannii lung infection model, lung CFU burden (C57Bl/6J mice). The format is in vivo, Acinetobacter baumannii. The conditions noted are these: 24 h time point; conjugates 50 mpk IP at t=−12 h and t=+1 h; AZM 25 mpk SC once at t=+1 h; n=5.

Values after ≈ are worked out from the molar mass of the structure shown. Where two headings read alike, the source gives them in different places. *1 amine or outer side, *2 acyl side, *3 side chain or, on linkers, in order; H or OH if unused. Where a SMILES comes first, the peptide text is derived from it. Bridges are numbered along the chain shown (N, C = ends). Roman numbers before positions name the chains, in order. [ ]: non-standard residue; d: D form. X6 = C#CCOCCOCCOCCOCCCN1C[C@@H](C(=O)[*:1])[C@H](C(=O)[*:2])C1; Nle = CCCC[C@H](N)C(=O)O; Dab = NCC[C@H](N)C(=O)O; azaGly = NNC(=O)O

Procedure for A. baumannii AB5075: A. baumannii AB5075 was grown to log-phase in LB at 37° C., 200 rpm shaking. Bacteria were washed once with PBS via centrifugation at 4,000 rpm. Bacteria were adjusted to desired concentration in PBS.
Prior to infection, 8-week-old female C57BI/6J mice (Jackson Labs) were anesthetized with 100 mg/kg ketamine and 10 mg/kg xylazine. Using an otoscope, mice were infected directly into the trachea. For CFU burden studies mice were infected with 2×10^7 CFU in 30 μL PBS. At 24 h post-infection mice were sacrificed by CO2 and both lung lobes were harvested. Lungs were homogenized with 1 mm silica beads in 1 mL PBS using a MagNA Lyser (Roche). Homogenization was carried out at 6,000 rpm for 60 s and chilled on ice for 60 s in-between runs. Lung homogenate was diluted in PBS ranging from 10^−1 to 10^−8, plated on LB plates and incubated at 37° C. overnight. The next day. CFU were enumerated and surviving CFU calculated relative to weight of the lung. […] Conjugates or hIgG1 (50 mpk) were administered intraperitoneally at t=−12 h pre-infection and t=+1 h post-infection. Azithromycin (Fresenius-Kabi) was administered subcutaneously once at t=+1 h post-infection. Efficacy of ADC conjugates (50 mpk) was determined upon intratracheal infection of A. baumannii AB5075. For CFU burden studies, mice (n=5 per group) were infected with 3×10^7 bacteria, sacrificed and lung CFU burden determined at 24 h time point.

Usually MIC stands for the lowest concentration found to suppress growth. As for `C#CCOCCOCCOCCOCCCN1C[C@@H](C(=O)N[C@@H](CCCC)C(=O)N[C@@H](CCN)C(=O)N[C@H](C(=O)NNC(=O)N[C@H]2CCNC(=O)[C@H]([C@@H](C)O)NC(=O)[C@H](CCN)NC(=O)[C@H](CCN)NC(=O)[C@H](CC(C)C)NC(=O)[C@@H](Cc3ccccc3)NC(=O)[C@H](CCN)NC2=O)[C@@H](C)O)[C@H](C(=O)N[C@@H](CCCC)C(=O)N[C@@H](CCN)C(=O)N[C@H](C(=O)NNC(=O)N[C@H]2CCNC(=O)[C@H]([C@@H](C)O)NC(=O)[C@H](CCN)NC(=O)[C@H](CCN)NC(=O)[C@H](CC(C)C)NC(=O)[C@@H](Cc3ccccc3)NC(=O)[C@H](CCN)NC2=O)[C@@H](C)O)C1` [Int-122] (I: [Nle][Dab]T[azaGly][Dab][Dab][dF]L[Dab][Dab]T / II: [Nle][Dab]T[azaGly][Dab][Dab][dF]L[Dab][Dab]T; lactam I:5-I:C, II:5-II:C; linker I:N-II:N via X6), the MIC in the assay with Kp 6951 (COL^R) is 8 µg/mL (≈ 3.05 µM); in the assay with Kp 43816, 2 µg/mL (≈ 0.763 µM); in the assay with Kp 10031, 2 µg/mL (≈ 0.763 µM); against Ab AB5075, 2 µg/mL (≈ 0.763 µM); with Ab 8990 (COL^R) it was more than 128 µg/mL; with Pa LES431 (Pa LES431 + FBS (50%, heat-inactivated)) it was 8 µg/mL. For the same compound, the MIC in the assay on Pa LES431 (Pa LES431) was 2 µg/mL (≈ 0.763 µM); in the assay on Pa PAO1, 4 µg/mL (≈ 1.53 µM); in the assay on Pa 27853, 4 µg/mL (≈ 1.53 µM); against Ec 2469, 2 µg/mL (≈ 0.763 µM); with Ec 25922 (Ec 25922 + FBS (50%, heat-inactivated)), 0.25 µg/mL; in the assay with Ec 25922 (Ec 25922), 2 µg/mL (≈ 0.763 µM). Moreover, the MIC in the assay with Ec AR0349 (mcr-1, COL^R) is 2 µg/mL (≈ 0.763 µM); with Ec 25922 64X-1 (COL^R) it was 2 µg/mL (≈ 0.763 µM); in assay [1], 2 µg/mL (≈ 0.763 µM); against Sa RN, more than 128 µg/mL; in the assay on Ab 19606 (COLhet^R), 2 µg/mL (≈ 0.763 µM). Moreover, in assay [2], the “% survival” value is on record as 80%.

On to `CC[C@H]1OC(=O)[C@H](C)[C@@H](O[C@H]2C[C@@](C)(OC)[C@@H](O)[C@H](C)O2)[C@H](C)[C@@H](O[C@@H]2O[C@H](C)C[C@H](N(C)C)[C@H]2O)[C@](C)(O)C[C@@H](C)CN(C)[C@H](C)[C@@H](O)[C@]1(C)O` [azithromycin (AZM), azithromycin, reference compound], for which, in the assay with A. baumannii AB5075, the “reduction of lung CFU burden” value is 0.76 logs.
